Data on seven compounds can be found in ChEMBL document CHEMBL3421607, “Design, synthesis and antibacterial activity of cinnamaldehyde derivatives as inhibitors of the bacterial cell division protein FtsZ” (Eur J Med Chem, 2015).

Values after ≈ are worked out from the molar mass of the structure shown.

Common to all, as to assay type: functional
Assay [1] has as its system Bacillus subtilis. As to the kind of experiment: microbe, parasite or virus in culture. The settings on record: ATCC 9372, 5 h.
Description: Inhibition of cell division in penicillin-susceptible Bacillus subtilis ATCC 9372 assessed as filamentation after 5 hrs by phase contrast microscopy
Assay [2] concerns Pseudomonas aeruginosa. As to the kind of experiment: microbe, parasite or virus in culture. The settings on record: ATCC 27853, 24 h.
Description: Antibacterial activity against penicillin-susceptible Pseudomonas aeruginosa ATCC 27853 after 24 hrs by broth microdilution method
Assay [3] concerns Streptococcus pyogenes. The experiment in a line: Antibacterial activity against penicillin-resistant Streptococcus pyogenes clinical isolates after 24 hrs by broth microdilution method.
In assay [4] the test system is Escherichia coli. The experiment in a line: microbe, parasite or virus in culture. The settings on record: ATCC 25922, 24 h.
Description: Antibacterial activity against penicillin-susceptible Escherichia coli ATCC 25922 after 24 hrs by broth microdilution method
Assay [5] has as its system Pseudomonas aeruginosa. As to the kind of experiment: microbe, parasite or virus in culture. The settings on record: ATCC 27853, 5 h.
Description: Inhibition of cell division in penicillin-susceptible Pseudomonas aeruginosa ATCC 27853 assessed as filamentation after 5 hrs by phase contrast microscopy
The subject of assay [6] is Staphylococcus epidermidis. The experiment in a line: Antibacterial activity against penicillin-resistant Staphylococcus epidermidis clinical isolates after 24 hrs by broth microdilution method. (In general: Broth dilution looks for growth in wells or tubes with falling amounts of substance.)
The test system of assay [7] is Staphylococcus aureus. The experiment in a line: Antibacterial activity against penicillin-resistant Staphylococcus aureus clinical isolates after 24 hrs by broth microdilution method.
In assay [8] the test system is Staphylococcus aureus. As to the kind of experiment: microbe, parasite or virus in culture. The settings on record: ATCC 25923, 5 h.
Description: Inhibition of cell division in penicillin-susceptible Staphylococcus aureus ATCC 25923 assessed as ballooning after 5 hrs by phase contrast microscopy
The test system of assay [9] is Bacillus subtilis. The experiment in a line: microbe, parasite or virus in culture. Conditions: ATCC 9372, 24 h.
Description: Antibacterial activity against penicillin-susceptible Bacillus subtilis ATCC 9372 after 24 hrs by broth microdilution method
Assay [10] concerns Staphylococcus aureus. As to the kind of experiment: microbe, parasite or virus in culture. Conditions: ATCC 29213, 24 h.
Description: Antibacterial activity against methicillin-resistant Staphylococcus aureus ATCC 29213 after 24 hrs by broth microdilution method
The subject of assay [11] is Escherichia coli. As to the kind of experiment: microbe, parasite or virus in culture. The settings on record: ATCC 25922, 5 h.
Description: Inhibition of cell division in penicillin-susceptible Escherichia coli ATCC 25922 assessed as filamentation after 5 hrs by phase contrast microscopy
For assay [12], the system named is Streptococcus pyogenes. As to the kind of experiment: Antibacterial activity against penicillin-susceptible Streptococcus pyogenes clinical isolates after 24 hrs by broth microdilution method.
The test system of assay [13] is Staphylococcus aureus. The experiment in a line: microbe, parasite or virus in culture. The settings on record: ATCC 25923, 24 h.
Description: Antibacterial activity against penicillin-susceptible Staphylococcus aureus ATCC 25923 after 24 hrs by broth microdilution method

For `Cc1nccn1-c1cc(NC(=O)/C=C/c2ccc([N+](=O)[O-])cc2)cc(C(F)(F)F)c1`, the MIC in assay [1] is 128 µg/mL (≈ 307 µM); in [2], more than 128 µg/mL; in [3] it was 128 µg/mL (≈ 307 µM); in assay [4], more than 128 µg/mL; in assay [5] it was 128 µg/mL (≈ 307 µM); in assay [6] it was more than 128 µg/mL. The MIC in assay [7] is more than 128 µg/mL; in assay [8] it was 32 µg/mL (≈ 76.9 µM); in assay [9] it was 128 µg/mL (≈ 307 µM); in assay [10] it was more than 128 µg/mL; in [11], more than 128 µg/mL; in assay [12], 32 µg/mL (≈ 76.9 µM). In assay [13], this compound returned an MIC of 128 µg/mL (≈ 307 µM).
Consider `O=C(/C=C/c1ccc(Cl)cc1Cl)N1CCOCC1`, for which the MIC in [1] was more than 128 µg/mL; in assay [2] it was 128 µg/mL (≈ 447 µM); in assay [3], 128 µg/mL (≈ 447 µM); in [4], 128 µg/mL (≈ 447 µM); in assay [5] it was more than 128 µg/mL; in [6], 64 µg/mL (≈ 224 µM). In addition, the MIC in assay [7], in [8], in [9], in assay [10], in [11] and in assay [12] was more than 128 µg/mL each time. Besides, in assay [13], the MIC is more than 128 µg/mL.
Take `COc1ccc(/C=C/C(=O)Nc2cccnc2)cc1`: the MIC was more than 128 µg/mL in [1]; 128 µg/mL (≈ 503 µM) in assay [2]; 128 µg/mL (≈ 503 µM) in assay [3]; 128 µg/mL (≈ 503 µM) in assay [4]; 128 µg/mL (≈ 503 µM) in assay [5]; 128 µg/mL (≈ 503 µM) in assay [6]. Moreover, the MIC in [7] is 64 µg/mL (≈ 252 µM); in [8], 4 µg/mL (≈ 15.7 µM); in [9], 128 µg/mL (≈ 503 µM); in assay [10] it was more than 128 µg/mL; in [11], 128 µg/mL (≈ 503 µM); in assay [12], more than 128 µg/mL. In assay [13], this compound showed an MIC of 32 µg/mL (≈ 126 µM).
As to `CCCCCCNC(=O)/C=C/c1ccc(Cl)cc1Cl`, the MIC in assay [1] is 128 µg/mL (≈ 426 µM); in assay [2] it was more than 128 µg/mL; in assay [3] it was more than 128 µg/mL; in assay [4] it was more than 128 µg/mL; in assay [5], more than 128 µg/mL; in [6] it was more than 128 µg/mL. For the same compound, the MIC in [7] was more than 128 µg/mL; in [8], more than 128 µg/mL; in assay [9], more than 128 µg/mL; in assay [10] it was more than 128 µg/mL; in [11], more than 128 µg/mL; in [12] it was 128 µg/mL (≈ 426 µM). In [13], this compound displayed an MIC of more than 128 µg/mL.
Regarding `COc1cc(/C=C/C(=O)n2c(C)nc3ccccc32)cc(OC)c1OC`, the MIC in assay [1] is more than 128 µg/mL; in assay [2], more than 128 µg/mL; in assay [3], 128 µg/mL (≈ 363 µM); in [4], 128 µg/mL (≈ 363 µM); in assay [5], more than 128 µg/mL; in assay [6], 128 µg/mL (≈ 363 µM). Moreover, the MIC in assay [7] is more than 128 µg/mL; in [8], 64 µg/mL (≈ 182 µM); in assay [9] it was more than 128 µg/mL; in assay [10], more than 128 µg/mL; in [11] it was more than 128 µg/mL; in assay [12] it was 128 µg/mL (≈ 363 µM). In assay [13], the MIC is more than 128 µg/mL.
On to `Cc1nc2ccccc2n1C(=O)/C=C/c1ccc([N+](=O)[O-])cc1`, for which the MIC in assay [1] was more than 128 µg/mL; in assay [2] it was 128 µg/mL (≈ 417 µM); in assay [3] it was 16 µg/mL (≈ 52.1 µM); in assay [4], 128 µg/mL (≈ 417 µM); in [5], more than 128 µg/mL; in assay [6] it was 128 µg/mL (≈ 417 µM). Further, the MIC in [7] was 128 µg/mL (≈ 417 µM); in assay [8], 0.5 µg/mL (≈ 1.63 µM); in assay [9], 128 µg/mL (≈ 417 µM); in [10], more than 128 µg/mL; in assay [11], more than 128 µg/mL; in [12], 64 µg/mL (≈ 208 µM). Moreover, the MIC in assay [13] was determined as 16 µg/mL (≈ 52.1 µM).
Take `COc1ccc(/C=C/C(=O)n2c(C)nc3ccccc32)cc1OC`: the MIC was more than 128 µg/mL in assay [1]; 128 µg/mL (≈ 397 µM) in assay [2]; 64 µg/mL (≈ 199 µM) in assay [3]; 128 µg/mL (≈ 397 µM) in [4]; more than 128 µg/mL in assay [5]; more than 128 µg/mL in [6]. The MIC in assay [7] is more than 128 µg/mL; in assay [8] it was 64 µg/mL (≈ 199 µM); in [9], more than 128 µg/mL; in [10], more than 128 µg/mL; in assay [11] it was 128 µg/mL (≈ 397 µM); in [12] it was 64 µg/mL (≈ 199 µM). Besides, in [13], the MIC was more than 128 µg/mL.
